Marks after values point to notes of the source that are not given here.
Tests used:
[1] = Isomerization to the previtamin in the complexing with cyclodextrins (HPLC); type: physicochemical
Method: It is stirred for 2 hours at 22° C. and for 2 hours at 0° C. The solid is suctioned off and washed with 5 ml of cold water. After drying, 1.73 g (90% of theory) is obtained as a white solid. After HPLC (Stat. phase Chiracel JHRH 150×4.6 mm ID, detection 244 nm, eluant water/acetonitrile, flow: 1 ml/minute, gradient t0=70+30 v/v, linear increase of the gradient over 10 minutes t10 min to 60+40 v/v, isocratic t10 min-30 min 60+40 v/v), the solid, in addition to ergocalciferol (tRet.=26 minutes), contains 24% of the previtamin form (tRet.=23 minutes).
10 mg (0.024 mmol, MW 416.65) of calcitriol (dissolved in 100 μl of ethanol) is added in drops to the clear solution over 10 minutes. It is stirred for 2 hours at 22° C. and for 2 hours at 0-3° C., the solid is filtered off, and it is washed 2 times with 100 μl each of cold water. After drying at 20° C. and 0.5 mbar (24 hours), 26.6 mg of calcitriol-β-CD complex (71.5% of theory) is obtained. After the solid is dissolved in methanol and after an HPLC study (Stat. Phase Chiracel JHRH 150×4.6 mm ID, detection 244 nm, eluant water/acetonitrile, flow: 1 ml/minute, gradient t0=70+30 v/v, linear increase of the gradient over 10 minutes t10 min to 60+40 v/v, isocratic t10 min-30 min 60+40 v/v), the solid contains 23% of the previtamin form (tRet.=12 minutes) in addition to calcitriol (tRet.=17 minutes).
At 25° C., 100 mg (0.21 mmol) of (thiazol-2-yl)-26,27-dinor-9,10-secocholesta-5,7,10(19)-triene-1,3,25-triol (dissolved in 0.5 ml of ethanol) is added. It is stirred for 2 hours at room temperature, then for 2 hours at 0° C. The solid is filtered off, washed with 1 ml of cold water and dried. 290 mg (85% of theory) of solid is obtained. The content of the solid in the previtamin (compound 2) is 20% (HPLC, Stat. Phase Chiracel JHRH 150×4.6 mm ID, detection 244 nm, eluant water/acetonitrile, flow: 1 ml/minute, gradient to =70+30 v/v, linear increase of the gradient over 10 minutes t10 min to 60+40 v/v, isocratic t10 min-30 min 60+40 v/v, tRef. Compound 2: 11.65 minutes, tRef. Compound 1: 18.19 minutes). The sample preparation is carried out by dissolving the complex in 100% methanol.
For analytical study, the complexes can be dissolved in methanol or DMF and can be used in these solutions for the HPLC analysis (see 2.1). The content of the complexes that are obtained can be determined in comparison to the pure substance.

[2] = Stability of the DIMEB complex from Example 3 a) 1 and the non-complexed active ingredient; type: physicochemical
Description: In Table 4 below, the stabilities of the DIMEB complex from Example 3 a) 1. and the non-complexed active ingredient are compiled: […]

[3] = Storage of compound 1 at room temperature; type: physicochemical; settings: after four months at room temperature
[4] = cited from earlier work
[5] = Cyclodextrin solubility in water; type: physicochemical
[6] = cited from earlier work; remark: listed apart in the source
[7] = Exp. 10: 15 d/40° C. aqueous, 80 μg of DIMEB complex per ml, compound 1 20 μg per ml
[8] = Exp. 11: 15 d/60° C. aqueous, 80 μg of DIMEB complex per ml, compound 1 20 μg per ml
[9] = Exp. 12: 15 d/80° C. aqueous, 80 μg of DIMEB complex per ml, compound 1 20 μg per ml
[10] = Exp. 13: 30 d/40° C. aqueous, 80 μg of DIMEB complex per ml, compound 1 20 μg per ml
[11] = Exp. 14: 30 d/60° C. aqueous, 80 μg of DIMEB complex per ml, compound 1 20 μg per ml

## C=C1/C(=C\C=C2/CCC[C@]3(C)[C@@H]([C@H](C)CCCC(C)(C)O)CC[C@@H]23)C[C@@H](O)C[C@@H]1O [Calcitriol, (5Z,7E)-(1S,3R)-9,10-secocholesta-5,7,10(19)-triene-1,3,25-triol]
[1]
  previtamin formation / isomerization (in words): do not show any significant previtamin formation
[1]; Table 1, without cyclodextrin
  % Previtamin (in Solution): 0.3%

## C=C1CC[C@H](O)C/C1=C/C=C1\CCC[C@]2(C)[C@@H]([C@H](C)/C=C/[C@H](C)C(C)C)CC[C@@H]12 [Ergocalciferol, (5Z,7E,22E)-(3S)-9,10-secoergosta-5,7,10(19),22-tetraen-3-ol]
[1]
  previtamin formation / isomerization (in words): do not show any significant previtamin formation
[1]; Table 1, without cyclodextrin
  % Previtamin (in Solution): 0.2%

## C=C1/C(=C\C=C2/CCC[C@]3(C)[C@@H]([C@H](C)CCC[C@H](O)c4nccs4)CC[C@@H]23)C[C@@H](O)C[C@@H]1O [Compound 1, (thiazol-2-yl)-26,27-dinor-9,10-secocholesta-5,7,10(19)-triene-1,3,25-triol]
[2]; Exp. 2: 30 d 40° C.
  By-Products: 3.08%
  Purity: 96.08%
[2]; Exp. 3: 3 d/80° C./75% rel F.
  By-Products: 77.45%
  Purity: 22.55%
[2]; Exp. 4: 7 d/80° C./75% rel F.
  By-Products: 95.34%
  Purity: 4.66%
[2]; Exp. 5: 15 d/40° C./75% rel F.
  By-Products: 2.9%
  Purity: 96.61%
[2]; Exp. 6: 15 d/60° C./75% rel F.
  By-Products: 2.96%
  Purity: 96.34%
[2]; Exp. 7: 15 d/80° C./75% rel F.
  By-Products: 100%
  Purity: 0%
[2]; Exp. 8: 30 d/40° C./75% rel F.
  By-Products: 3.00%
  Purity: 96.7%
[2]; Exp. 9: 30 d/60° C./75% rel F.
  By-Products: 2.98%
  Purity: 96.23%
[2]; [7]
  By-Products: 2.92** %
  Purity: 92.78%
[2]; [8]
  By-Products: 18.69** %
  Purity: 77.12%
[2]; [9]
  By-Products: 96.72** %
  Purity: 3.28%
[2]; [10]
  By-Products: 3.20** %
  Purity: 91.96%
[2]; [11]
  By-Products: 37.26** %
  Purity: 59.76%
[2]; Start
  By-Products: 3%
  Purity: 96.12%
[1]; Table 2, compound 1 without CD
  % Previtamin (in Solution): 0.2 (in %
[1]; Table 3, compound 1 without CD
  % Previtamin: 0.3%
[3]
  previtamin content: about 2%
[3]; in comparison to fresh samples or samples stored under inert conditions
  content: 60%

## OC[C@H]1O[C@@H]2O[C@H]3[C@H](O)[C@@H](O)[C@@H](O[C@H]4[C@H](O)[C@@H](O)[C@@H](O[C@H]5[C@H](O)[C@@H](O)[C@@H](O[C@H]6[C@H](O)[C@@H](O)[C@@H](O[C@H]7[C@H](O)[C@@H](O)[C@@H](O[C@H]8[C@H](O)[C@@H](O)[C@@H](O[C@H]9[C@H](O)[C@@H](O)[C@@H](O[C@H]1[C@H](O)[C@H]2O)O[C@@H]9CO)O[C@@H]8CO)O[C@@H]7CO)O[C@@H]6CO)O[C@@H]5CO)O[C@@H]4CO)O[C@@H]3CO [γ-Cyclodextrin, γ-cyclodextrin]
[4]; 20° C., source Szejtly 1988
  Cyclodextrin Solubility in Water (20° C.): 23.3 g/100 ml

## COC[C@H]1O[C@@H]2O[C@H]3[C@H](OC)[C@@H](OC)[C@@H](O[C@H]4[C@H](OC)[C@@H](OC)[C@@H](O[C@H]5[C@H](OC)[C@@H](OC)[C@@H](O[C@H]6[C@H](OC)[C@@H](OC)[C@@H](O[C@H]7[C@H](OC)[C@@H](OC)[C@@H](O[C@H]8[C@H](OC)[C@@H](OC)[C@@H](O[C@H]1[C@H](OC)[C@H]2OC)O[C@@H]8COC)O[C@@H]7COC)O[C@@H]6COC)O[C@@H]5COC)O[C@@H]4COC)O[C@@H]3COC [TRIMEB]
[5]
  CD-Water Solubility (g/100 ml), (25° C.): 200 g/100 ml

## COC[C@H]1O[C@@H]2O[C@H]3[C@H](O)[C@@H](OC)[C@@H](O[C@H]4[C@H](O)[C@@H](OC)[C@@H](O[C@H]5[C@H](O)[C@@H](OC)[C@@H](O[C@H]6[C@H](O)[C@@H](OC)[C@@H](O[C@H]7[C@H](O)[C@@H](OC)[C@@H](O[C@H]8[C@H](O)[C@@H](OC)[C@@H](O[C@H]1[C@H](O)[C@H]2OC)O[C@@H]8COC)O[C@@H]7COC)O[C@@H]6COC)O[C@@H]5COC)O[C@@H]4COC)O[C@@H]3COC [DIMEB, Heptakis-(2,6-di-O-methyl)-β-cyclodextrin]
[6]
  effects in intravenous administration: hemolytic effects
[5]
  CD-Water Solubility (g/100 ml), (25° C.): 25 g/100 ml
[4]; Saenger et al. 2002, Uekama, Irie 1987
  solubility of the DIMEB: 60 g/100 ml of water
[4]; at 20° C., Saenger et al. 2002
  solubility in water: > 50 g/100 ml of water
[4]; while being heated, Saenger et al. 2002
  solubility in water while being heated: < 1 g/100 ml

From patent US20070093448A1, “Complexes that consist of vitamin D compounds or analogs thereof with a 5Z,7E,10(19)-triene system and methylated derivatives of beta-cyclodextrin” (priority 2005, published 2007)
